# Experimental data published in ChEMBL document CHEMBL1201862, “PubChem BioAssay data set” (2004).
# The source made the active and inactive calls.
# Assays:
# Streptokinase A = target: T1, Streptokinase A (Streptococcus pyogenes serotype M1, UniProt P10520); test: viability-normalized secreted streptokinase activity reduction – plasminogen activation absorbance, OD405, dose response (AID 1914); format: functional, Streptococcus pyogenes M1 GAS;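 note: secreted streptokinase activity via plasminogen activation per viability signal from cell pellet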
# T1 sequence (P10520 whole entry): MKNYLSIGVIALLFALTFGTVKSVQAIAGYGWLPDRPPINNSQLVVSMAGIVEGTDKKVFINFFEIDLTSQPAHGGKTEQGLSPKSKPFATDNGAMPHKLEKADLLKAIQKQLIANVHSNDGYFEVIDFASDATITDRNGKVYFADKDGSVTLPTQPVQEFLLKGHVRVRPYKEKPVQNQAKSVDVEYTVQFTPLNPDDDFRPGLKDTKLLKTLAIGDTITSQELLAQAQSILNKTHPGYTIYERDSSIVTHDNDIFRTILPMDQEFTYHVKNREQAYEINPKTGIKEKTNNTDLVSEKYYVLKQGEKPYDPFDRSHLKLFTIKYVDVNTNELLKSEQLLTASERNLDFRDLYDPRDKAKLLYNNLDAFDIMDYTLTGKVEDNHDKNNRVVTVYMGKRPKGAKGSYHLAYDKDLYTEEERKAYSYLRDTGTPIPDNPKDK
# Prothrombin = Prothrombin (Homo sapiens, UniProt P00734); test: Thrombin 1536 HTS Dose Response Confirmation. [Related pubchem assays: 1046 (Thrombin 1536 HTS; hits were confirmed in this assay)]; format: functional
# [1] = system: Streptococcus sp. 'group A'; test: Streptococcus pyogenes SK(-)GAS viability under kanamycin – luminescence, BacTiterGlo, confirmation, counter-screen for streptokinase expression inhibitor project, dose response (AID 1900); format: functional, organism-based
# Streptococcus = test: GAS UMAA2166 growth inhibition – luminescence, BacTiterGlo, counter-screen for streptokinase expression inhibitor project, dose response (AID 1915); format: functional, organism-based;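 note: potency for reduction of bacterial viability or growth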
# Fatty acid synthase [2] = target: T2, Fatty acid synthase (Homo sapiens, UniProt P49327); test: inhibition of human FAS-TE enzyme activity – biochemical, kinetic fluorescence intensity, dose response (AID 624326); format: functional;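 note: rate of fluorescence rise from hydrolysis of a fluorogenic O-methyl fluorescein ester substrate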
# T2 sequence (P49327 whole entry): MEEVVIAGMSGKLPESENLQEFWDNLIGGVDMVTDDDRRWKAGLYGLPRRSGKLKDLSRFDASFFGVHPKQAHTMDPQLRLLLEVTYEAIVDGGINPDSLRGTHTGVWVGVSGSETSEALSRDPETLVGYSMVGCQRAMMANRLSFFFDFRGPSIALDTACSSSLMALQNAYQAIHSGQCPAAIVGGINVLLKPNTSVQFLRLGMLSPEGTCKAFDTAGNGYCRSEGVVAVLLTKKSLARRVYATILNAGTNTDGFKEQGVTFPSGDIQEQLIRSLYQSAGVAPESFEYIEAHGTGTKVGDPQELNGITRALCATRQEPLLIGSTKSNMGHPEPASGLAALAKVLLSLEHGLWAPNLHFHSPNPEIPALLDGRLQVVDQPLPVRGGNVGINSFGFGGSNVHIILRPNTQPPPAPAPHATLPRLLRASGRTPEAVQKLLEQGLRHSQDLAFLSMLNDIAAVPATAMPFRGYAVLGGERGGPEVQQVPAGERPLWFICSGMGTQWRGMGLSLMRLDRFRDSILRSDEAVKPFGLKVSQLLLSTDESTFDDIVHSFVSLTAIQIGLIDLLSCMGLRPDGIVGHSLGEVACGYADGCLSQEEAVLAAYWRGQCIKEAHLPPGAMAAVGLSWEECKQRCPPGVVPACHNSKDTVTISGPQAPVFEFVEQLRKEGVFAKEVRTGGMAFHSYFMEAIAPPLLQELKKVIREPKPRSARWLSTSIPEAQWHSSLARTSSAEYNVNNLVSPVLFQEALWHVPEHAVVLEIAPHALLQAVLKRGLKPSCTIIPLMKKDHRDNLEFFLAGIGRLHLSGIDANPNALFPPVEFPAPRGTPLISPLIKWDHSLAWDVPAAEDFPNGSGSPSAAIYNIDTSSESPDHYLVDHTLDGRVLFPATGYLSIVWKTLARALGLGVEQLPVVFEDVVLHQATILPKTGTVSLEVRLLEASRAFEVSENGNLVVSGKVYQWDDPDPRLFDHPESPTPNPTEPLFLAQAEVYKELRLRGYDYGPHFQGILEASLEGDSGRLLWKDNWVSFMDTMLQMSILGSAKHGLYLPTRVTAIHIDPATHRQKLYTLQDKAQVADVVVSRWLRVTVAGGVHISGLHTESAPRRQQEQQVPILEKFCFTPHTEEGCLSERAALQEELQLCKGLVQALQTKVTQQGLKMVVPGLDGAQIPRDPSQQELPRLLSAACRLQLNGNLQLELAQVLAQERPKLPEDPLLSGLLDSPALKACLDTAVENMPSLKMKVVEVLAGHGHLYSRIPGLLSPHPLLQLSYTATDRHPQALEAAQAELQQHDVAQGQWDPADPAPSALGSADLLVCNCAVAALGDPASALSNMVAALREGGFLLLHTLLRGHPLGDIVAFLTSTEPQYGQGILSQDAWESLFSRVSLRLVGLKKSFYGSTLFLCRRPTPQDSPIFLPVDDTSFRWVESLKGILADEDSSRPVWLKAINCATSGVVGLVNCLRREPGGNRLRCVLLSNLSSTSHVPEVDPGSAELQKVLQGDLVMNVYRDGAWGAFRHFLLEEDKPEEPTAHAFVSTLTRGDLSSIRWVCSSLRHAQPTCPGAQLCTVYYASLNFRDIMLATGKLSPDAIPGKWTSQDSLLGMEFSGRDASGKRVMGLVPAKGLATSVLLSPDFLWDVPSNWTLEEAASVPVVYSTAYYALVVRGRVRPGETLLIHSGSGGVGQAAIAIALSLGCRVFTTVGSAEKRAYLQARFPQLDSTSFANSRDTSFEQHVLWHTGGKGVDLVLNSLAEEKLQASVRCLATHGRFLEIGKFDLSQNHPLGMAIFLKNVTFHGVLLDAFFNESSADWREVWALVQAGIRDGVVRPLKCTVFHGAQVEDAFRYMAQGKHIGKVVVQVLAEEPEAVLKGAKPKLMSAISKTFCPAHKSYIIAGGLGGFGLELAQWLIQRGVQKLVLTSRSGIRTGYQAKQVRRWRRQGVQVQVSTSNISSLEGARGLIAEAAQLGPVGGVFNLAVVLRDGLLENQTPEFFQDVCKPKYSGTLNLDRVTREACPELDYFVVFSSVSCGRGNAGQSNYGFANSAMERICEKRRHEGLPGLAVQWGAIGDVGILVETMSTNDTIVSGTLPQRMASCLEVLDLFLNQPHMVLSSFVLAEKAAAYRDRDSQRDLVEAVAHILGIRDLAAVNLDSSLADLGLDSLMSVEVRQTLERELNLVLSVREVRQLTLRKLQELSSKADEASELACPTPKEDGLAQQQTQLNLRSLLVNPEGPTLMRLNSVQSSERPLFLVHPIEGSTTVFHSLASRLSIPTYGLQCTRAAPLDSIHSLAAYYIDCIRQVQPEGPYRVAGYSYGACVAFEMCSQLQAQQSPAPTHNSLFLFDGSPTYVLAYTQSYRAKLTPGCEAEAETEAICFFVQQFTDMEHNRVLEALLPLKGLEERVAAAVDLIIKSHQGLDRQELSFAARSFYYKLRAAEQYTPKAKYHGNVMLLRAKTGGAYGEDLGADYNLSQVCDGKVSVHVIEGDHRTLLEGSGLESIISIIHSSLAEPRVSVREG
# [3] = target: T3, High affinity choline transporter 1 (Homo sapiens, UniProt Q9GZV3); test: human choline transporter blockers, potency – cell-based, 5-point CRC, membrane potential dye, dose response (AID 504840); format: functional
# T3 sequence (Q9GZV3 whole entry): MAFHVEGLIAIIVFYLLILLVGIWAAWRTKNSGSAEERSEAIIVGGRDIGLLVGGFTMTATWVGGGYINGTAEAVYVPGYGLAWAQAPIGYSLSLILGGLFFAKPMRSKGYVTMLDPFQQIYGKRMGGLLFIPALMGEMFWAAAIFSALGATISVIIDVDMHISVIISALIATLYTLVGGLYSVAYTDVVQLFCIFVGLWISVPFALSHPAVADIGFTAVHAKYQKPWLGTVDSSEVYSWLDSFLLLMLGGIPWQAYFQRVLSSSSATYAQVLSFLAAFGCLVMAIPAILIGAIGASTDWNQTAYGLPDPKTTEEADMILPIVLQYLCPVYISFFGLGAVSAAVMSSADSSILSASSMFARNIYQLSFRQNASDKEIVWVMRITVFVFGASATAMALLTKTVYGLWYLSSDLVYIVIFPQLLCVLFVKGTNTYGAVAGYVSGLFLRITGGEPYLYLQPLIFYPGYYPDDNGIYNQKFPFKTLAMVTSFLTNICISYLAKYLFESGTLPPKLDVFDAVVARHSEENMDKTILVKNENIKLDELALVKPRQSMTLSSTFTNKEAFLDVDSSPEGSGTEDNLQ
# [4] = target: T4, Low molecular weight phosphotyrosine protein phosphatase (Homo sapiens, UniProt P24666); format: functional; settings: read-out: IC50_Mean;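 note: Dose-response confirmation assay measuring inhibition of LMPTP enzyme activity by fluorescence intensity read-out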
# T4 sequence (P24666 whole entry): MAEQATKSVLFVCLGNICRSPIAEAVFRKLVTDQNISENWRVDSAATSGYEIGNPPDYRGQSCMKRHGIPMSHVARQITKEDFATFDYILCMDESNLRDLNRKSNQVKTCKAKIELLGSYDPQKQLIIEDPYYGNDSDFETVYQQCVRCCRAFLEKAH
# Fatty acid synthase [5] = target: T2, Fatty acid synthase; test: inhibition of human FAS-TE enzyme activity – biochemical, endpoint fluorescence intensity, uHTS hits, dose response (AID 624327); format: functional;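 note: fluorescence from hydrolysis of an O-methyl fluorescein acyl ester substrate by the enzyme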
# [6] = target: T5, Sentrin-specific protease 8 (Homo sapiens, UniProt Q96LD8); format: functional
# T5 sequence (Q96LD8 whole entry): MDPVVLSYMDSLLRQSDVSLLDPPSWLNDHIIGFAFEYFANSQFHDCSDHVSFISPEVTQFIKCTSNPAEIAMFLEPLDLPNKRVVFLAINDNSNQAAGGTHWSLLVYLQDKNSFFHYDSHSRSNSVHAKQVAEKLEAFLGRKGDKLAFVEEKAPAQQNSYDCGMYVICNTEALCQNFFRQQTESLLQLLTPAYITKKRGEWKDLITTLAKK
# [7] = target: T5, Sentrin-specific protease 8; format: functional; remark: listed apart in the source
# Aminopeptidase N = target: T6, Aminopeptidase N (Plasmodium falciparum FcB1/Columbia, UniProt O96935); test: malaria alanyl aminopeptidase activity blockers – biochemical, fluorogenic H-Leu-NHMec substrate, 1536-well (AID 1445); set-up: species or system Plasmodium falciparum 3D7, 3D7
# T6 sequence (O96935 whole entry): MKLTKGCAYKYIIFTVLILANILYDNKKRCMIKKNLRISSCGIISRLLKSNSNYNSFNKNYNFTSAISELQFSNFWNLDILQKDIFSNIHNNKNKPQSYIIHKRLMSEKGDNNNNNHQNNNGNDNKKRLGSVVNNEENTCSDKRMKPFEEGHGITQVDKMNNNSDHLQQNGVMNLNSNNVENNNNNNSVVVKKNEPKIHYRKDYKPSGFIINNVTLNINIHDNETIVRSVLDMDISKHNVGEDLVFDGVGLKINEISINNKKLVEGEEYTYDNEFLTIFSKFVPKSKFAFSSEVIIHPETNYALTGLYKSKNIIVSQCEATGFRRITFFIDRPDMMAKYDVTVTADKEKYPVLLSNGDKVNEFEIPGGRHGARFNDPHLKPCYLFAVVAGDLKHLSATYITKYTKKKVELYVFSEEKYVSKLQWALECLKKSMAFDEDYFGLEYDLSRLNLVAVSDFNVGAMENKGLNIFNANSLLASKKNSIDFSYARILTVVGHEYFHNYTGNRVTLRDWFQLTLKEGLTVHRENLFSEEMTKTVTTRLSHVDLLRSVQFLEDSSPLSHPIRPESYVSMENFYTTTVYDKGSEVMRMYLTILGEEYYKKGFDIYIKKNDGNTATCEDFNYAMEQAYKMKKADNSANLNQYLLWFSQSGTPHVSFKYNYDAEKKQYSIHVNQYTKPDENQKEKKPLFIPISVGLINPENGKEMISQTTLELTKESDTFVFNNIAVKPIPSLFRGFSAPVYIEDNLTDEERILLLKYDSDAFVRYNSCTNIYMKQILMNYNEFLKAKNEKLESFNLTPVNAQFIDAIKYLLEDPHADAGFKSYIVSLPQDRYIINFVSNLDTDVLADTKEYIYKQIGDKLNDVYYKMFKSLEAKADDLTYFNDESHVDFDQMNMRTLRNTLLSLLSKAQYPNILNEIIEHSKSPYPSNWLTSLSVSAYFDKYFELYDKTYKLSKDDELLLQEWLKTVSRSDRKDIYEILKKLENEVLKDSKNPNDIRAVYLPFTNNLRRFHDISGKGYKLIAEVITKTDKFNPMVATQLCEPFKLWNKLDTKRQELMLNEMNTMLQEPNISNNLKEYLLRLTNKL
# [8] = Luminescence Cell-Based Dose Retest to Confirm Inhibitors of Cancer Stem Cells. [Related pubchem assays (depositor defined):AID2717, AID2721]; format: functional; settings: Homo sapiens
# [9] = target: T7, Long-chain-fatty-acid--AMP ligase FadD28 (Mycobacterium tuberculosis, UniProt P9WQ59); test: Fluorescence polarization aasay to screen for inhibitors that compete for the binding of FadD28 to a bisubstrate Measured in Biochemical System Using Plate Reader - 2147-01_Inhibitor_Dose_CherryPick_Activity.; format: functional, Mycobacterium tuberculosis H37Rv
# T7 sequence (P9WQ59 whole entry): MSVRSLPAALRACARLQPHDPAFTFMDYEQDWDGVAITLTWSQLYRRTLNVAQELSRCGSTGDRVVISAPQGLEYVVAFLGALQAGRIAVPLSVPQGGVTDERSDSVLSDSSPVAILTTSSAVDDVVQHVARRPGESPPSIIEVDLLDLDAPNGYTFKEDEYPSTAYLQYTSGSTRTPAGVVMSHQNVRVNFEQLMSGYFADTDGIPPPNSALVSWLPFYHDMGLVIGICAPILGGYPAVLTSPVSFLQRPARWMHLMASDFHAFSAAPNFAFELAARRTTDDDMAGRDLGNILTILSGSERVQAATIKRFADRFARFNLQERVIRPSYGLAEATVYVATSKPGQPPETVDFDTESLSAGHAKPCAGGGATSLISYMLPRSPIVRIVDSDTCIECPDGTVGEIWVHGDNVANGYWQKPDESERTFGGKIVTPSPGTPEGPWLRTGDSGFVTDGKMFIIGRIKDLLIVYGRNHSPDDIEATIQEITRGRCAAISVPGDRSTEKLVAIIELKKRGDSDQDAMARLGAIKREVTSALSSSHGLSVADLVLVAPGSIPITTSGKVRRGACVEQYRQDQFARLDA
# [10] = A Cell Based Secondary Assay To Explore Cytotoxicity of Compounds that Sensitize Mycobacterium Tuberculosis to Beta-Lactam Antibiotics.; format: functional
# [11] = viability of uninfected HEp-2 cells – cell-based, HTS, cytotoxicity control for RSV inhibitor project, dose response (AID 2410); format: functional; settings: human respiratory syncytial virus
# [12] = target: T8, Heat shock factor protein 1 (Mus musculus, UniProt P38532); test: enhancement of HSF1-driven luciferase signal – cell-based, NIH3T3, luminescence, dose retest, confirmation (AID 435004); format: functional;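 note: stress induced by proteasome inhibitor MG132 added 30 min after compound; luciferase reporter driven by HSF1 response element in NIH3T3 cells; actives raise luminescence as potentiators of the MG132 stress response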
# T8 sequence (P38532 whole entry): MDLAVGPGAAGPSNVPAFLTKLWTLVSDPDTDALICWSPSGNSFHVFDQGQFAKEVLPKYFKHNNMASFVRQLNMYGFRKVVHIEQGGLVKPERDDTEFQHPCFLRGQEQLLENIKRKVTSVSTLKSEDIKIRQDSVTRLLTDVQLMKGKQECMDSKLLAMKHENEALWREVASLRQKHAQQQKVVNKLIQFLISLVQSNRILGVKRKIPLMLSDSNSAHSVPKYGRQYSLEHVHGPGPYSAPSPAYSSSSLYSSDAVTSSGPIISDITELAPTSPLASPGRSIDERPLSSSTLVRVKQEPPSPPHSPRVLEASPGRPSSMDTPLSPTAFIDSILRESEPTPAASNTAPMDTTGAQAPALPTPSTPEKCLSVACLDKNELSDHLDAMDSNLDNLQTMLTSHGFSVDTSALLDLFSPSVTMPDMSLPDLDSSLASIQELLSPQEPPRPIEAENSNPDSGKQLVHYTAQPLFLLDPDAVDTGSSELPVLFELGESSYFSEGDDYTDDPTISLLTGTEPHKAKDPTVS
# [13] = target: T9, Carboxy-terminal domain RNA polymerase II polypeptide A small phosphatase 1 (Homo sapiens, UniProt Q9GZU7); test: CTDSP1 inhibitors, concentration-response, biochemical, absorbance readout, ultra-high-throughput screen actives (AID 540297); format: functional
# T9 sequence (Q9GZU7 whole entry): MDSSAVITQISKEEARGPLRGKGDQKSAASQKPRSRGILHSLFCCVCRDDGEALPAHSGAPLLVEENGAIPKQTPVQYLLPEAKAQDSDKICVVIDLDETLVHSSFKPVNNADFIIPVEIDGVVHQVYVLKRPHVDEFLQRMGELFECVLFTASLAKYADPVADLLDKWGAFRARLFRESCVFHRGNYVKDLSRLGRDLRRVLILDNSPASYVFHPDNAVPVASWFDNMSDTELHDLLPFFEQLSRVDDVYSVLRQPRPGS
smiles,measurement,setting,value
O=C(Nc1ccc(Cl)c(Cl)c1)C1CC(=O)N(c2ccc(Br)cc2)C1 (stereo unspecified),EC50,Streptokinase A,20.1 µM (active)
same,IC50,Prothrombin,> 50 µM (not active)
same,EC50,[1],5.25 µM (active)
same,EC50,Streptococcus,11.9 µM (active)
C/C(=N\NS(=O)(=O)c1ccc(Cl)c([N+](=O)[O-])c1)c1cc2ccccc2o1,IC50,Fatty acid synthase [2],15.6 µM (active)
same,IC50,[3],4.37 µM (active)
same,IC50,[4],80 µM (inactive)
same,IC50,Fatty acid synthase [5],12.3 µM (active)
CC1OC(O[C@H]2CC[C@]3(C)C4C=C[C@]56OC[C@@]7(CC[C@@H](C)[C@H](C)C75)[C@H](O)C[C@@]6(C)[C@]4(C)CC[C@H]3C2(C)C)C(OC2OC(CO)C(O)C(O)C2OC2OCC(O)C(O)C2O)C(O)C1O (stereo partly specified),IC50,Prothrombin,> 50 µM (not active)
O=C(COC(=O)c1cc(Br)ccc1O)Nc1cc(S(=O)(=O)N2CCCC2)ccc1Cl,IC50,Prothrombin,7.17 µM (active)
Cc1cc(=O)n(-c2ccc3ccccc3n2)[nH]1,IC50,[6],30.4 µM (active)
same,IC50,[7],24.2 µM (active)
C/C(=N\NC(=O)c1cccc(Cl)c1)C1C(=O)c2ccccc2C1=O,IC50,Aminopeptidase N,40.8 µM (active)
same,AC50,[8],10.7 µM (active)
same,AC50,[9],68.6 µM (active)
Cc1cn([C@@H](CCCCNC(=O)OC(C)(C)C)C(=O)NCCCCCCCCCCC(=O)N2CCN(C(=O)OC(C)(C)C)CC2)nn1,CC50,[10],37.6 µM (active)
Cc1c(NC(=O)CSc2nnc3c4ccccc4n(CCc4ccccc4)c3n2)c(=O)n(-c2ccccc2)n1C,CC50,[11],4.56 µM (active)
same,EC50,[12],24.1 µM (active)
same,IC50,cells,3.31 µM (active)
COc1ccccc1-n1c(C)cc(/C=C2/C(=N)N3C(=NC2=O)SN=C3S(C)(=O)=O)c1C,CC50,[11],19.8 µM (active)
same,IC50,cells,11.4 µM (active)
Nc1[nH]cnc2nc(SCCN3CCCCC3)nc1-2,IC50,Prothrombin,> 50 µM (not active)
Cc1[nH][nH]c(=O)c1C(c1c(C)[nH][nH]c1=O)c1cn(Cc2ccc(Cl)c(Cl)c2)c2ccccc12,IC50,[6],6.19 µM (active)
same,EC50,Streptokinase A,10.1 µM (active)
same,IC50,[7],5.81 µM (active)
same,EC50,[12],27 µM (active)
O=C(O)c1ccc(Nc2nc(-c3ccc([N+](=O)[O-])cc3)nc3ccccc23)cc1,IC50,[4],10.9 µM (active)
same,IC50,[13],4.57 µM (active)
COC(=O)c1cc(C)nc2c(C)cc3[nH]c4ccccc4c3c12,CC50,[10],> 40 µM (active)
same,CC50,[11],15 µM (active)
Cc1ccc(C2CC(=O)NC(SCC(=O)Nc3nccs3)=C2C#N)cc1 (stereo unspecified),AC50,[9],51.5 µM (active)
